# In patent EP3638219B1, “COMPOSITION COMPRISING TERPINENE-4-OL FOR THE TREATMENT OF DEMODICOSIS” (priority 2017, dated 2018):
# Assays:
# demodex = conditions: components of TTO; WO06119174 A1 and WO09032773 A2; cited from earlier work
# [1] = Physical stability of terpinen-4-ol in aqueous media (phase separation, clarity); type: physicochemical
# Description: The compositions according to the invention are physically stable, i.e. clear, transparent and without precipitates, and substantially retain the initial content of the initial ingredient.
# For example, on a lab scale, terpinen-4-ol and a mixture of PPG-26 buteth-26 (b2), PEG-40 hydrogenated castor oil (b3) and trideceth-9 (b4) were mixed in water and stirred for about 30 minutes. Cocamidopropyl betaine was then added and a clear solution was obtained, which was verified as stable.
SMILES,activity against demodex in vitro (demodex),"behaviour in aqueous media ([1]; concentrations below 2% in weight/weight of the composition, in the presence of commonly used emulsifiers and surfactants)",behaviour in aqueous media ([1]; in the presence of Tween 20 in a weight ratio to terpinen-4-ol up to 5:1)
"C=C(C)C1CC=C(C)C(=O)C1 (stereo not shown) [carvone, reference compound]",active,–,–
CC1=CCC(O)(C(C)C)CC1 (stereo not shown) [terpinen-4-ol],active,tends to separate from aqueous media,two-phase system
